# From patent publication US20250282795A1, “EGFR Inhibitors in cancer treatment” (Celyn Therapeutics, Inc., priority 2022, published 2025)
# Legend:
# Ba/F3 (D770_N771insSVD) = assay: Cellular growth inhibition assay (CellTiter-Glo), Ba/F3 (D770_N771insSVD); type: cell-based; details: Mus musculus, BaF3, 72 h; 3 days of incubation; read-out: Ba/F3 (D770_N771 insSVD) CC50
# In short: (§1)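 Ba/F3 cells expressing the EGFR variants were seeded at 4000 cells/well in RPMI with FBS, with 10 ng/ml rhEGF added for the wild-type line, and treated with compound at 0.2% final DMSO. Viability was read by CellTiter-Glo luminescence after 3 days.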
# Ba/F3 (H773_V774insSVD) = assay: Cellular growth inhibition assay (CellTiter-Glo), Ba/F3 (H773_V774insSVD); type: cell-based; details: Mus musculus, BaF3, 72 h; 3 days of incubation; read-out: Ba/F3 (H773_V774 insSVD) CC50
# EGFR (WT) = EGFR (WT) (Homo sapiens (Human), UniProt P00533); assay: Potency of EGFR enzymatic activity inhibition (WT) (ADP-Glo luminescence); type: biochemical; details: recombinant EGFR (WT) 4 nM, Poly(Glu, Tyr) substrate, ATP, 1 h at rt
# Protocol: Example D. Primary Assay Used to Determine Potency of EGFR enzymatic activity Inhibition (WT)
# Compound activity was determined using recombinant EGFR protein (SignalChem, #E10-112G-10) and Poly(Glu, Tyr) substrate (Sigma-Aldrich, #P0275) in an in vitro enzymatic reaction. The enzymatic assay used to determine activity was a Luminescence assay using a Microplate Reader ClarioStar Plus. The enzymatic reaction was carried out in assay buffer (40 mM TRIS-HCl pH 7.4-7.6, 20 mM MgCl2, 2.5 mM MnCl2, 0.05 mM DTT, 0.1 mg/ml BSA). The compounds were dispensed on a 384 well Diamond Well Plate (Axigen, Cat #P-384-120SQ-C—S) using the Biomek FX liquid handling system at 80× solutions of compounds in DMSO. 2× Protein-Substrate mix (final concentration 4 nM of EGFR and 50 ng/μl of Poly(Glu, Tyr)) was prepared in 1× Assay buffer and 4 μl of mixture per well was added into 384w white Reaction plate with NBS (Coming, Cat #4513). 4 μl of Poly(Glu, Tyr) substrate w/o EGFR in 1× buffer was used for negative control. Plates were centrifuged for 1 min at 200 g. Next step the Compounds were added to Reaction plate using Biomek station via following steps: 1 μl of 80× compounds (in DMSO) were mixed thoroughly with 39 μl of 2× 10 μM ATP in Assay Buffer, then 4 μl of this mixture was added to Reaction plate with 4 μl of Protein-Substrate mix. Plates were centrifuged for 1 min at 200 g and incubated for 1 h at rt. Next 4 μL of ADP-Glo reagent (Promega, ADP-Glo™ Kinase Assay, Cat #V9102) per well was added. Plates were incubated for 30 min at rt. Then 8 μL of Kinase detection reagent (Promega, ADP-Glo™ Kinase Assay, Cat #V9102) per well was added and the Luminescence was measured using Microplate Reader. The % inhibition was then used to calculate the EC50 values. The results for certain compounds are presented in the Table D. The values of EC50 shown as a letters A-E, where: A<0.001 μM; 0.001 μM<B<0.005 μM; 0.005 μM<C<
# Ba/F3 (L858R + T790M) = assay: Cellular growth inhibition assay (CellTiter-Glo), Ba/F3 (L858R+T790M); type: cell-based; details: Mus musculus, BaF3, 72 h; 3 days of incubation
# In short: as §1
# EGFR (D770_N771insNPG) = EGFR (D770_N771insNPG) (Homo sapiens (Human), UniProt P00533, INS770NPG); assay: Potency of EGFR (D770_N771insNPG) enzymatic activity inhibition (ADP-Glo luminescence); type: biochemical; details: recombinant EGFR (D770_N771insNPG) 1.5 nM, Poly(Glu, Tyr) substrate, ATP, 1 h at rt
# Protocol: Example B. Primary Assay Used to Determine Potency of EGFR (D770_N771insNPG) Enzymatic Activity Inhibition
# Compounds activity was determined using recombinant EGFR (D770 N771insNPG) protein (SignalChem, #E10-132GG-10) and Poly(Glu, Tyr) substrate (Sigma-Aldrich, #P0275) in an in vitro enzymatic reaction. The enzymatic assay used to determine activity was a Luminescence assay using a Microplate Reader ClarioStar Plus. The enzymatic reaction was carried out in assay buffer (40 mM TRIS-HCl pH 7.4-7.6, 20 mM MgCl2, 2.5 mM MnCl2, 0.05 mM DTT, 0.1 mg/ml BSA). The compounds were dispensed on a 384 well Diamond Well Plate (Axigen, Cat #P-384-120SQ-C—S) using the Biomek FX liquid handling system at 80× solutions of compounds in DMSO. 2× Protein-Substrate mix (final concentration 1.5 nM of EGFR (D770_N771insNPG) and 50 ng/μl of Poly(Glu, Tyr)) was prepared in 1× Assay buffer and 4 µl of mixture per well was added into 384w white Reaction plate with NBS (Coming, Cat #4513). 4 μl of Poly(Glu, Tyr) substrate w/o EGFR in 1× buffer was used for negative control. Plates were centrifuged for 1 min at 200 g. Next step the Compounds were added to Reaction plate using Biomek station via following steps: 1 μl of 80× compounds (in DMSO) were mixed thoroughly with 39 μl of 2× 10 μM ATP in Assay Buffer, then 4 μl of this mixture was added to Reaction plate with 4 μl of Protein-Substrate mix. Plates were centrifuged for 1 min at 200 g and incubated for 1 h at rt. Next 4 μL of ADP-Glo reagent (Promega, ADP-Glo™ Kinase Assay, Cat #V9102) per well was added. Plates were incubated for 30 min at rt. Then 8 μL of Kinase detection reagent (Promega, ADP-Glo™ Kinase Assay, Cat #V9102) per well was added and the Luminescence was measured using Microplate Reader. The % inhibition was then used to calculate the EC50 values. The values of EC50 shown as a letters A-E, where: A<0.001 μM; 0.001 μM<B<0.005 μM; 0.005 μM<C<0.01 μM; 0.01<D<0.05 μM; E>0.05.
# Ba/F3 (A767_dupASV) = assay: Cellular growth inhibition assay (CellTiter-Glo), Ba/F3 (A767_dupASV); type: cell-based; details: Mus musculus, BaF3, 72 h; 3 days of incubation; read-out: Ba/F3 (A767_dup ASV) CC50
# In short: as §1
# Ba/F3 (EGFRwt) = assay: Cellular growth inhibition assay (CellTiter-Glo), Ba/F3 (EGFRwt); type: cell-based; details: Mus musculus, BaF3, 72 h; Ba/F3 (Wild type) with 10 ng/ml rhEGF, 3 days of incubation
# Protocol: Example E. Cellular Growth Inhibition Assay
# Ba/F3(Empty vector) (Signosis), Ba/F3(Wild type) (Signosis), Ba/F3(L^858R+T790M) (Signosis), Ba/F3(A767_dupASV) (Signosis), Ba/F3(D770_N771insSVD) (Signosis), Ba/F3(H773_V774insNPH) (Signosis) were seeded at a density of 4000 cells per well in a CellBIND® 384-well Flat Clear Bottom Black Polystyrene Microplates (Coming, USA, Cat #3770) in 45 μl total volume of RPMI (PanEco, Cat #C330, Russia) with […] (HyClone, Cat #SV30160.03) and with 10 ng/ml rmIL-3 (RD systems, USA, Cat #403-ML-025) (for BaBF3(Empty vector)) and with 10 ng/ml rhEGF (ThermoFisher, USA, Cat #PHG0311L) (for BaCF3(Wild type)). 500× compounds solutions in DMSO (Sigma Cat #D2650) were prepared into Cmpnds plate (DiamondWell Plate, Axigen, Cat #P-384-120SQ-C—S) and DMSO only control was included. 1.l of 500× compounds (Cmpnds plate) was added to 49 µl of culture medium into Dilution plate (Diamond Well Plate, Axigen, Cat #P-384-120SQ-C—S), mixed and then 5 μl of 10× compounds solutions were transferred to cells followed by centrifugation at 100 g for 1 min. Final DMSO concentration was 0.2% o. After 3 days of incubation 10.l of CellTiter-Glo (Promega, CAT #G7572) were added to the cells, plate was centrifuged at 100 g for 1 min and luminescence signal was measured using Microplate Reader (CLARIOStar).
# [1] = Cellular growth inhibition assay (CellTiter-Glo), Ba/F3 (Empty vector); type: cell-based; details: mouse, Ba/F3 cells with empty vector; Ba/F3 (Empty vector) with 10 ng/ml rmIL-3, 3 days of incubation
# In short: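 Ba/F3 cells carrying an empty vector were plated in 384-well black clear-bottom plates at 4000 cells per well in 45 μl RPMI containing FBS and 10 ng/ml rmIL-3. Compounds diluted from DMSO stocks were added as 5 μl of 10× solution, giving 0.2% DMSO. After 3 days, CellTiter-Glo was added and luminescence measured.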
# Chain of EGFR (D770_N771insNPG) (P00533 other isoform, or with tags, fused parts or gaps del 1-694/ins NPG behind 770 limits assumed): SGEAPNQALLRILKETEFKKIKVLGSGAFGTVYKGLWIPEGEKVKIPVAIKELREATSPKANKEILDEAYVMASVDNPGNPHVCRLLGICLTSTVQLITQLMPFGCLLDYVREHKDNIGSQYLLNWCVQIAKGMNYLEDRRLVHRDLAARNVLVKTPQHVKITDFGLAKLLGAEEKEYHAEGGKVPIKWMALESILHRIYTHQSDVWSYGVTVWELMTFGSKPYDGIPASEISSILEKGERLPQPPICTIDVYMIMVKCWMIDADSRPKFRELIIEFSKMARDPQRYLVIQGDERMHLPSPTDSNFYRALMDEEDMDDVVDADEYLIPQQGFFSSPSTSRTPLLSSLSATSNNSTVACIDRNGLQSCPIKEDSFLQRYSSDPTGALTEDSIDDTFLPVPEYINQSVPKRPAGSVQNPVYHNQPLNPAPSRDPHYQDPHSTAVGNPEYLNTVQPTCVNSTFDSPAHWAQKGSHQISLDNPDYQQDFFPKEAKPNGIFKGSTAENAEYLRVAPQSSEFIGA
# Chain of EGFR (WT) (P00533 25-1210): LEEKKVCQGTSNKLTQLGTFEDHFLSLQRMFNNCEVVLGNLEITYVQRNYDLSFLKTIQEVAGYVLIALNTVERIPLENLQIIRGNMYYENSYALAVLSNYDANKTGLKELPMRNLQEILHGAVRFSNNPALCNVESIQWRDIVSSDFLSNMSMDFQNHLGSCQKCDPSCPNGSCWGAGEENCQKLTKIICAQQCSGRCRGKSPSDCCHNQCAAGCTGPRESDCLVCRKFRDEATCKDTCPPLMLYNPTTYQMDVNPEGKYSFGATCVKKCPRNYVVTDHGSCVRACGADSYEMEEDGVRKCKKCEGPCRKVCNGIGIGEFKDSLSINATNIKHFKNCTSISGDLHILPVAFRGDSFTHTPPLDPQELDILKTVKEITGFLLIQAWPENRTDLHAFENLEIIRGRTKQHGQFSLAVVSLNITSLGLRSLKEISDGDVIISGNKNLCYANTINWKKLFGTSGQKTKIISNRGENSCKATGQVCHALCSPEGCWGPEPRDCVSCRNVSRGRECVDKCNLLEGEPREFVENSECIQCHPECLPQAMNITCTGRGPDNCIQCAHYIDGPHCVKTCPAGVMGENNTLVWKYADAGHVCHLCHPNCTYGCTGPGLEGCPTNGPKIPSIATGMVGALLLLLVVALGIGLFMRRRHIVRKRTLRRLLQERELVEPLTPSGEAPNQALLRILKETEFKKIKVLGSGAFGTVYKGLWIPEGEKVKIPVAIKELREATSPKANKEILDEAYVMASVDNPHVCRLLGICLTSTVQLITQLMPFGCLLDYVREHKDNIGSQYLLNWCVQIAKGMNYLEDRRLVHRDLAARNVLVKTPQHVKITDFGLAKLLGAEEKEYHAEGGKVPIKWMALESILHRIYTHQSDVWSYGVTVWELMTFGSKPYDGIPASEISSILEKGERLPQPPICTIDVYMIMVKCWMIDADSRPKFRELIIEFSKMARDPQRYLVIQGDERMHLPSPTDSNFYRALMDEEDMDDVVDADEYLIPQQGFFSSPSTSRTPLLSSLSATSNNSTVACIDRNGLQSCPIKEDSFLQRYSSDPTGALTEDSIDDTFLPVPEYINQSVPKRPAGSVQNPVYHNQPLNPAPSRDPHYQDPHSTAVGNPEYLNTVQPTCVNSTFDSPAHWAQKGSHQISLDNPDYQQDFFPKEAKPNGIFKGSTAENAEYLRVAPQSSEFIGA
structure (smiles),measurement,setting,value
"COc1c(F)cccc1Nc1c2[nH]c3c1C(=O)NCC3C/C=C/COCCOc1cnccc1-2 (stereo not shown) [Compound 99, (13E)-23-[(3-Fluoro-2-methoxyphenyl)amino]-8,11-dioxa-5,18,22-tniazatetracyclo[18.2.1.0^2,7.0^16′2]tricosa-1(23),2,4,6,13,20-hexaen-19-one]",CC50,Ba/F3 (D770_N771insSVD),0.01 to 0.1 µM
same,CC50,Ba/F3 (H773_V774insSVD),0.1 to 1 µM
same,EC50,EGFR (WT),0.001 to 0.005 µM
same,CC50,Ba/F3 (L858R + T790M),0.1 to 1 µM
same,EC50,EGFR (D770_N771insNPG),0.001 to 0.005 µM
same,CC50,Ba/F3 (A767_dupASV),0.001 to 0.01 µM
same,CC50,Ba/F3 (EGFRwt),0.01 to 0.1 µM
same,CC50 at 3 days,[1],> 10 µM
"COc1c(F)cccc1Nc1c2[nH]c3c1C(=O)NCC3CCCCOCCOc1cnccc1-2 (stereo not shown) [Compound 100, 23-[(3-Fluoro-2-methoxyphenyl)amino]-8,11-dioxa-5,18,22-triazatetracyclo[18.2.1.0^2,7.0^16,21]tricosa-1(23),2,4,6,20-pentaen-19-one]",CC50,Ba/F3 (D770_N771insSVD),0.01 to 0.1 µM
same,CC50,Ba/F3 (H773_V774insSVD),0.01 to 0.1 µM
same,EC50,EGFR (WT),≤ 0.001 µM
same,CC50,Ba/F3 (L858R + T790M),0.1 to 1 µM
same,EC50,EGFR (D770_N771insNPG),0.001 to 0.005 µM
same,CC50,Ba/F3 (A767_dupASV),0.001 to 0.01 µM
same,CC50,Ba/F3 (EGFRwt),0.01 to 0.1 µM
same,CC50 at 3 days,[1],> 10 µM
"COc1c(F)cccc1Nc1c2[nH]c3c1C(=O)NC[C@H]3CC(=O)N1CCC[C@H]1C(=O)NCCCOc1cnccc1-2 [Compound 148, (16aS,22aR)-23-(3-fluoro-2-methoxyanilino)-14,15,16a,17,18,19,22,22a-octahydro-2H,12H-4,6-(metheno)dipyrido[3,4-k: 4′,3′-o]pyrrolo[2,1-g][1,5,8,13]oxatriazacyclohexadecine-3,16,21(1H,5H,13H)-trione]",CC50,Ba/F3 (D770_N771insSVD),> 10 µM
same,CC50,Ba/F3 (H773_V774insSVD),> 10 µM
same,CC50,Ba/F3 (L858R + T790M),> 10 µM
same,CC50,Ba/F3 (A767_dupASV),> 10 µM
same,CC50,Ba/F3 (EGFRwt),> 10 µM
same,CC50 at 3 days,[1],> 10 µM
"COc1c(F)cccc1Nc1c2[nH]c3c1C(=O)NCC3CC(=O)N(C)CC(=O)NCCCOc1cnccc1-2 (stereo not shown) [Compound 149, 21-(3-fluoro-2-methoxyanilino)-12-methyl-6,7,8,9,11,12,14,14a,15,16-decahydro-18,20-(metheno)dipyrido[3,4-k: 4′,3′-o][1,5,8,13]oxatriazacyclohexadecine-10,13,17(19H)-trione]",CC50,Ba/F3 (D770_N771insSVD),1 to 10 µM
same,CC50,Ba/F3 (H773_V774insSVD),> 10 µM
same,CC50,Ba/F3 (L858R + T790M),> 10 µM
same,CC50,Ba/F3 (A767_dupASV),1 to 10 µM
same,CC50,Ba/F3 (EGFRwt),> 10 µM
same,CC50 at 3 days,[1],> 10 µM
"COc1c(F)cccc1Nc1c2[nH]c3c1C(=O)NCC3CC(=O)NCCOCCOCCOc1cnccc1-2 (stereo not shown) [Compound 150, 23-(3-fluoro-2-methoxyanilino)-6,7,9,10,13,14,16,16a,17,18-decahydro-20,22-(metheno)dipyrido[3,4-m: 4′,3′-q][1,4,7,10,15]trioxadiazacyclooctadecine-15,19(12H,21H)-dione]",CC50,Ba/F3 (D770_N771insSVD),> 10 µM
same,CC50,Ba/F3 (H773_V774insSVD),> 10 µM
same,CC50,Ba/F3 (L858R + T790M),> 10 µM
same,CC50,Ba/F3 (A767_dupASV),> 10 µM
same,CC50,Ba/F3 (EGFRwt),> 10 µM
same,CC50 at 3 days,[1],> 10 µM
"COc1c(F)cccc1Nc1c2[nH]c3c1C(=O)NCC3CC(=O)N1CCN(CCOCCOc3cnccc3-2)CC1 (stereo not shown) [Compound 153, 29-(3-Fluoro-2-methoxyanilino)-18,21-dioxa-1,6,10,15,24-pentaazapentacyclo[22.2.2.1^8,110^4,9.0^12,17]nonacosa-8,11(29),12(17),13,15-pentaene-2,7-dione]",CC50,Ba/F3 (D770_N771insSVD),> 10 µM
same,CC50,Ba/F3 (H773_V774insSVD),> 10 µM
same,CC50,Ba/F3 (L858R + T790M),> 10 µM
same,CC50,Ba/F3 (A767_dupASV),> 10 µM
same,CC50,Ba/F3 (EGFRwt),> 10 µM
same,CC50 at 3 days,[1],> 10 µM
"COc1c(F)cccc1Nc1c2[nH]c3c1C(=O)NC[C@@H]3CCCN1CCO[C@H](COc3cnccc3-2)C1 [Compound 157, (7S)-21-[(3-Fluoro-2-methoxyphenyl)amino]-6,7,9,10,12,13,14,14a,15,16-decahydro-7,11-methano-18,20-methenodipyrido[3,4-k:4′,3′-o][1,4,7,13]dioxadiazacyclohexadecin-17(19H)-one]",CC50,Ba/F3 (D770_N771insSVD),> 10 µM
same,CC50,Ba/F3 (H773_V774insSVD),> 10 µM
same,CC50,Ba/F3 (L858R + T790M),> 10 µM
same,CC50,Ba/F3 (A767_dupASV),> 10 µM
same,CC50,Ba/F3 (EGFRwt),> 10 µM
same,CC50 at 3 days,[1],> 10 µM
